The values below come from patent US20150274719A1, “AMINO-SUBSTITUTED IMIDAZO[1,2-A]PYRIDINECARBOXAMIDES AND THEIR USE” (BAYER PHARMA AKTIENGESELLSCHAFT, priority 2012, published 2015).

In general, MRT refers to a mean duration of stay, worked out from the concentration-time curve. One may read the half-life as the time needed for the level to fall by half in the phase considered. Low readings indicate rapid decline, high ones slow decline.

A short description of data set [1]: Determination of pharmacokinetic parameters following intravenous and oral administration (rats). It counts as in vivo, male Wistar rats. To be noted: intravenous administration in rats. A digest of the protocol:
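Rats (male Wistar) dosed IV in plasma/DMSO formulation or orally by gavage in water/PEG400/ethanol; serial jugular-catheter blood sampling (usually >10 points, up to 24–72 h).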

Data set [2] has as its target T1, recombinant guanylate cyclase reporter cell line (Rattus norvegicus, UniProt P19686+P20595).
T1 construct: expressed in transfected cells; host or cells: recombinant reporter cell line
T1 sequence (P19686 1-690): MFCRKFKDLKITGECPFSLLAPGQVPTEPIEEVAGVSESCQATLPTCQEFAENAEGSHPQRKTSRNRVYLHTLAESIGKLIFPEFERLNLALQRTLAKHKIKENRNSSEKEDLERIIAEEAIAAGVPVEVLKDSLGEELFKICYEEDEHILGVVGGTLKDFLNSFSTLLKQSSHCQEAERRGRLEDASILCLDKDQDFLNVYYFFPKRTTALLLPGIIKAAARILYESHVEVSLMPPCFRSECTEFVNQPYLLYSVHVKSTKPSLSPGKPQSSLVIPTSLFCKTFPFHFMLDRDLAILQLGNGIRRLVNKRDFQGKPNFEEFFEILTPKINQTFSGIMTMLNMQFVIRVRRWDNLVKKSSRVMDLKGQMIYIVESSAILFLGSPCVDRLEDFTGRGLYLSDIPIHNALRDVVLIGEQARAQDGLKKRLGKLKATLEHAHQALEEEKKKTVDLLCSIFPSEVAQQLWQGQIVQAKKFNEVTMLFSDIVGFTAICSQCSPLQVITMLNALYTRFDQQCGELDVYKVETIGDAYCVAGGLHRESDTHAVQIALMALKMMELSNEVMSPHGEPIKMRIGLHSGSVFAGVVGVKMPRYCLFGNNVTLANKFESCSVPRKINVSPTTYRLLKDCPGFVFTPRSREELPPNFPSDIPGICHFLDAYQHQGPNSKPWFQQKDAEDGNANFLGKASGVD
T1 sequence (P20595 1-619): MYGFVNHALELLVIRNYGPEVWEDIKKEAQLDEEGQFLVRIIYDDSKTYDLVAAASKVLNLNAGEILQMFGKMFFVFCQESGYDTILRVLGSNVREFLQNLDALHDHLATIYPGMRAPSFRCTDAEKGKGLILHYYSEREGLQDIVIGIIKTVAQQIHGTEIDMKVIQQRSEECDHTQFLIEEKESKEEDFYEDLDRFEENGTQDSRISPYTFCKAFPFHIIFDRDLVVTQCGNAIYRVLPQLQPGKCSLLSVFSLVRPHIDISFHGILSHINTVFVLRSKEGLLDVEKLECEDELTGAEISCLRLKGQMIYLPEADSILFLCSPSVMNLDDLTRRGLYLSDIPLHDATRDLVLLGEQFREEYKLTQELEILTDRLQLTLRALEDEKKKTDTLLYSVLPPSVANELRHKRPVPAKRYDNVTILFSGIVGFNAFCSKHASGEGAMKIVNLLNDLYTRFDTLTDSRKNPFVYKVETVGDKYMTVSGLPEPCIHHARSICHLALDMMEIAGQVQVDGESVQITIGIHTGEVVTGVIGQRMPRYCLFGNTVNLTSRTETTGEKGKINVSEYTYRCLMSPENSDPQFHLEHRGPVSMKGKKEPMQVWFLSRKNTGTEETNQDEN
Nature of the data set: Action on recombinant guanylate cyclase reporter cell line. The class given is cell-based. To be noted: in some cases mean values from individual determinations. In short, it runs like this:
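Read-out: MEC (minimal effective concentration) in cells. Reporter line carries recombinant sGC. Some values are averages of single runs.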

Setting [3] is: male, Wistar, rat, plasma, iv, read-out: MRT.

Counter-ions that a name gives are not always drawn. Like-named read-outs stand apart in the source and are kept apart here.

In data set [1], `Cc1nc2c(OCc3c(F)cccc3F)cc(C(F)F)cn2c1C(=O)NCC(C)(N)CF` (single isomer, unassigned; enantiomer b) [Example 292, ent-N-(2-amino-3-fluoro-2-methylpropyl)-8-[(2,6-difluorobenzyl)oxy]-6-(difluoromethyl)-2-methylimidazo[1,2-a]pyridine-3-carboxamide (Enantiomer B)] showed an AUCnorm of 0.56 kg·h/L, a CLblood of 36.2 mL/min/kg, an MRT of 4.1 h and a t1/2 of 3.2 h. In data set [2], the “MEC (minimal effective concentration)” value came to 0.03 µM.

In data set [1], `Cc1nc2c(OCc3c(F)cccc3F)cc(Cl)cn2c1C(=O)NCC(C)(C)N` [Example 73, N-(2-Amino-2-methylpropyl)-6-chloro-8-[(2,6-difluorobenzyl)oxy]-2-methylimidazo[1,2-a]-pyridine-3-carboxamide] gave an AUCnorm of 1.55 kg·h/L and a CLblood of 8.5 mL/min/kg. This compound also gave a half-life in data set [1] (male, Wistar, rat, plasma, iv) of 8.6 h. The MRT in data set [1] (setting [3]) turned out to be 11.8 h. In data set [2], the “MEC (minimal effective concentration)” value was 0.30 µM.

With `Cc1nc2c(OCc3c(F)cccc3F)cc(Cl)cn2c1C(=O)NCC1(N)CCC1` [Example 155, N-[(1-aminocyclobutyl)methyl]-6-chloro-8-[(2,6-difluorobenzyl)oxy]-2-methylimidazo[1,2-a]-pyridine-3-carboxamide trifluoroacetate], in data set [1], the AUCnorm is 0.97 kg·h/L and the CLblood came out at 21.2 mL/min/kg. In data set [1] (male, Wistar, rat, plasma, iv), this compound showed a half-life of 7.7 h. In addition, in data set [1] (setting [3]), the MRT was 11.2 h. The “MEC (minimal effective concentration)” value in data set [2] was 0.30 µM.

Regarding `Cc1cc(OCc2c(F)cccc2F)c2nc(C)c(C(=O)NC[C@H]3CCCCN3)n2c1` [Example 173, 8-[(2,6-Difluorobenzyl)oxy]-2,6-dimethyl-N-[(2R)-piperidin-2-ylmethyl]imidazo[1,2-a]pyridine-3-carboxamide], in data set [1], the AUCnorm was 0.54 kg·h/L and the CLblood turned out to be 28 mL/min/kg. Moreover, the half-life in data set [1] (male, Wistar, rat, plasma, iv) was 3.3 h. In addition, in data set [1] (setting [3]), the MRT was found to be 3.9 h. The “MEC (minimal effective concentration)” value in data set [2] worked out at 0.30 µM.

`Cc1cc(OCc2c(F)ccc(F)c2F)c2nc(C)c(C(=O)NCC(C)(C)N)n2c1` [Example 276, N-(2-Amino-2-methylpropyl)-2,6-dimethyl-8-[(2,3,6-trifluorobenzyl)oxy]imidazo[1,2-a]pyridine-3-carboxamide]: in data set [1], the AUCnorm turned out to be 0.70 kg·h/L and the CLblood is 21.2 mL/min/kg. This compound had a half-life in data set [1] (male, Wistar, rat, plasma, iv) of 2.9 h. Besides, the MRT in data set [1] (setting [3]) amounted to 4.5 h. Moreover, the “MEC (minimal effective concentration)” value in data set [2] worked out at 0.10 µM.

In data set [1], `Cc1cc(OCc2c(F)cccc2F)c2nc(C)c(C(=O)NCC3(N)CCCCC3)n2c1` [Example 307, N-[(1-aminocyclohexyl)methyl]-8-[(2,6-difluorobenzyl)oxy]-2,6-dimethylimidazo[1,2-a]pyridine-3-carboxamide] registered an AUCnorm of 0.35 kg·h/L and a CLblood of 29.7 mL/min/kg. This compound also gave a half-life in data set [1] (male, Wistar, rat, plasma, iv) of 6.9 h. In addition, the MRT in data set [1] (setting [3]) turned out to be 9.8 h. For the same compound, the “MEC (minimal effective concentration)” value in data set [2] was determined as 0.65 µM.

In data set [1], `C#Cc1cc(OCc2c(F)cccc2F)c2nc(C)c(C(=O)NCC(C)(N)CCC)n2c1` (stereo not drawn) [Example 356, ent-N-(2-amino-2-methylpentyl)-8-[(2,6-difluorobenzyl)oxy]-6-ethynyl-2-methylimidazo[1,2-a]pyridine-3-carboxamide] yielded an AUCnorm of 0.61 kg·h/L and a CLblood of 16.3 mL/min/kg. This compound also had a half-life in data set [1] (male, Wistar, rat, plasma, iv) of 10.3 h. The MRT in data set [1] (setting [3]) turned out to be 13.9 h. Moreover, in data set [2], the “MEC (minimal effective concentration)” value is 0.10 µM.
